Reference: patent US8334253B2, “Cosmetic and dermatological formulations of MNTF peptides” (Dermacare Neuroscience Institute, priority 2008, dated 2012)
Peptide text beside a SMILES is read from it. * marks the point of attachment. Palmitoyl = CCCCCCCCCCCCCCCC(=O)*

Assays:
Format in all cases: cell-based
[1] = tested on: gamma interferon-induced NO production in epidermal keratinocytes; experiment: Inhibition of gamma interferon-induced nitric oxide production in keratinocytes (Griess reaction); conditions: keratinocytes, 48 hours, gamma-interferon 300 U/ml
Source text: The study method chosen is similar to that published in the reference Tsai et al. (Tsai et al, Inhibition of inflammatory nitric oxide production and epidermis damages by Saccharomycopsis Ferment Filtrate. J Dermatol Sci 2006 June 42 (3): 249-57. Laskin, Multifunctional Role of Nitric Oxide in Inflammation, Trends Endocrinol Metab 1994; 5:377-382. Lyons, Emerging Roiles of Nitric Oxide in Inflammation, Hospital Practice, Jul. 15, 1996: 69-86.)
The objective of the study was to investigate the inhibition effect of Pal-hexapeptide (SEQ ID NO: 2, in palmitylated form) on gamma interferon-induced NO production in epidermal keratinocytes in culture.
Anti-inflammatory effect was observed as a reduction of nitric oxide production in keratinocytes. Keratinocytes were incubated 48 hours with gamma-interferon (300 U/ml) alone (as control) or with gamma-interferon together with different concentrations (0.1 μM, 1 μM, 10 μM, 100 μM and 1000 μM) of Pal-hexapeptide. Gamma interferon plus aminoguanidine (10 mg/mL) was used as positive control. The amount of NO production was detected by Griess reaction. Nitric oxide readily oxides to nitrite in aqueous medium, and this reaction was measured as nitrite accumulation in the medium. […] The optical density of the wells were read using a Tibertek Mutiskan (MCC microplate reader at a wavelength of 540 nm, subtracting the absorbance at a reference wavelength of 620 nm.) A printout of the absorbance values was generated by the plate reader, and data were entered into an EXCEL spreadsheet for analysis. The average absorbance and standard deviations were expressed as percent of control absorbances.

[2] = tested on: hyaluronic acid levels in adult human dermal fibroblast (aHDF) conditioned media; experiment: Hyaluronic acid in fibroblast-conditioned medium (HA-ELISA); conditions: 96 h
Source text: Hyaluronic acid (hyaluronan, HA), a naturally occurring carbohydrate polymer is a key component of connective, epithelial and neural tissues. HA participates in hydrodynamics, movement and proliferation of cells. This test was designed to determine whether a sample of palmitylated and non-palmitylated MNTF hexapeptide has an effect on hyaluronic acid levels in the adult human dermal fibroblast (aHDF) conditioned media.
Adult HDF (facial, passage 2, Cell Applications, San Diego, Calif. cat.#106-05A lot#1392) were plated in high glucose phosphate-free DMEM supplemented with 5% cosmic serum from Hyclone, Utah) at 6,000 cells per well and test materials were added the following day. Test materials were: Pal-Hexapeptide (palmitylated SEQ ID NO:2 as a lyophilized powder labeled APC 341055, lot V08150A1, received from DermaCare Neuroscience Institute), type I sterile water (negative control) and basic fibroblast growth factor (bFGF, positive control). Pal-Hexapeptide was dissolved in water at 20 mg/ml. Final concentrations tested were: 400, 200, 100, 50 and 25 ug/ml for DNP and 5 ng/ml for bFGF (plate 507). After 96 h, cell culture conditioned media were collected and 100 ul aliquotes were used for the HA assay. HA assay was performed using Hyaluronan Enzyme-Linked Immunosorbent Assay Kit (HA-ELISA, cat. #K-1200) from Echelon (Salt Lake City, Utah). The HA output was measured by following the generation of a chromophoric reaction product in 96 well plate, with the use of a BioRad microplate reader at 410 nm and the effect of the test materials was determined using the formula: Absorbance 410 (sample)/Absorbance 410 (Zero HA)×100.
Adult HDF (facial, passage 2, Cell Applications, San Diego, Calif. cat.#106-05A lot#1392) were plated in high glucose phosphate-free DMEM supplemented with 5% cosmic serum from Hyclone, Utah) at 6,000 cells per well and test materials were added the following day. Test materials were: hexapeptide (SEQ ID NO:2 (non-palmitylated), lyophilized powder lot #D294, received from DermaCare Neuroscience Institute), type I sterile water (negative control) and basic fibroblast growth factor (bFGF, positive control). Pal-Hexapeptide was dissolved in water at 20 mg/ml. Final concentrations tested were: 2000, 1000, 500 and 250 ug/ml for hexapeptide and 5 ng/ml for bFGF (plate 507). After 96 h, cell culture conditioned media were collected and 100 ul aliquotes were used for the HA assay. HA assay was performed using Hyaluronan Enzyme-Linked Immunosorbent Assay Kit (HA-ELISA, cat. #K-1200) from Echelon (Salt Lake City, Utah). The HA output was measured by following the generation of a chromophoric reaction product in 96 well plate, with the use of a BioRad microplate reader at 410 nm and the effect of the test materials was determined using the formula: Absorbance 410 (sample)/Absorbance 410 (Zero HA)×100.

human keloid fibroblasts = experiment: Human keloid fibroblast proliferation kinetic study; conditions: for inhibition of proliferation of human keloid fibroblasts: cell counts on days 1-4, Trypan blue exclusion
Protocol: Keloid can be characterized as a hyperproliferation/growth of fibrous scar tissue following trauma to the skin. […] Experimental protocols were based on a published study design for keloid fibroblast growth kinetics and is as described in Polo et al., 1999, Ann. Plastic Surg. 43 (2):185-190.
Briefly, fibroblasts were cultured from skin tissue obtained from fresh surgical specimens. The skin specimen was rinsed in 10 ml of calcium- and magnesium-free Dulbecco's phosphate-buffered saline (Sigma Chemical Co, St. Louis, Mo.) supplemented with gentamycin ([…]) for 30 minutes at room temperature. A second antibiotic rinse using 1% 10,000 U per milliliter penicillin G, 25 micrograms per milliliter amphotericin B, 10,000 micrograms per milliliter streptomycin sulfate solution (Gibco BRL, Gran Island, N.Y.) was performed for 10 minutes. The epidermis was separated from the dermis from each piece. The specimen was cut into four pieces of equal dimensions. Each piece was placed dermis-side down into a 60-mm culture dish containing Dispase solution (Collaborative Biomedical Products, Bedford, Mass.). The explants were incubated with no additional culture media for 15 minutes at 37° C. A total of 10 ml Dulbecco's modified Eagle's medium (DMEM; Gibco BRL) was added slowly to the culture dish, which was then incubated at 37° C. at 5% carbon dioxide. The cells were subcultured until 80% confluence was obtained. Trypsin-ethylenediaminetetraacetic acid (Gibco BRL) was added to […] the cells from the surface of the culture plate, and the cells were washed with DMEM and transferred to a centrifuge tube. […] The cells were counted using a hemocytometer, and their cell number was adjusted to 1×10^6 cells, which were then plated on a 35-mm Petri dish with 2 ml DMED and 1% fetal bovine serum, and incubated at 37° C. in 5% carbon dioxide. […]
Samples from each group were removed on days 1, 2, 3 and 4. The cells from each sample were trypsinized, washed, centrifuged, and resuspended in 1 ml DMEM; and were counted using the Trypan blue dye exclusion method and a hemocytometer.

## CCCCCCCCCCCCCCCC(=O)N[C@@H](Cc1ccccc1)C(=O)N[C@@H](CO)C(=O)N[C@@H](CCCNC(=N)N)C(=O)N[C@@H](Cc1ccc(O)cc1)C(=O)N[C@@H](C)C(=O)N[C@@H](CCCNC(=N)N)C(=O)O [Pal 6 mer, Pal-FSRYAR] (Palmitoyl-FSRYAR-OH; C-terminus assumed)
[1]; 0.1 μM
  nitric oxide production induced by Gamma-interferon, % of the control: 92%
[1]; 1 μM
  nitric oxide production induced by Gamma-interferon, % of the control: 72%
[1]; 10 μM
  nitric oxide production induced by Gamma-interferon, % of the control: 57%
[1]; 100 μM
  nitric oxide production induced by Gamma-interferon, % of the control: 24%
[1]; 1000 μM
  nitric oxide production induced by Gamma-interferon, % of the control: 31%
[2]; 50 ug/ml
  stimulation of hyaluronic acid in the fibroblast-conditioned medium: about 15%
[2]; 100 ug/ml
  stimulation of hyaluronic acid in the fibroblast-conditioned medium: about 15%
[2]; 200 ug/ml
  stimulation of hyaluronic acid in the fibroblast-conditioned medium: 40%
[2]; 400 ug/ml
  stimulation of hyaluronic acid in the fibroblast-conditioned medium: 40%
Human keloid fibroblasts; 10^−5 M or 10 micrograms per milliliter
  inhibition of human keloid fibroblast cells, dose response study: highly effective
Human keloid fibroblasts; listed as MNTF
  inhibition of proliferation of human keloid fibroblasts: statistically significant
Human keloid fibroblasts; listed as Pal-Hexapeptide
  inhibition of proliferation of human keloid fibroblasts: dose-dependent reduction/inhibition
